Results: patent US10087199B2, “Super-resolution imaging compositions and methods using same” (Yale University, priority 2014, dated 2018)

Experiments:
[1] = tested on: HeLa cells (Golgi label); assay: Photostability in sequential 3D spinning disk confocal imaging; assay type: cell-based; conditions: fixed cells
Procedure: The relative photostability of Cer-TCO/SiR-Tz to both BODIPY-Cer and the SiR labeled SNAP-tag Golgi protein Rab6 was compared. The latter is the product of reaction between Rab6-SNAP and a benzyl guanine derivative of SiR (SiR-BG) (Lukinavicius, et al., 2013, Nature Chem. 5:132-139) and thus contains the same near-IR dye as SiR-Tz (FIGS. 5A-5B). HeLa cells were treated with Cer-TCO/SiR-Tz or BODIPY-Cer, while Rab6-SNAP-expressing cells were treated with SiR-BG. The cells were then examined in sequential 3D images using spinning disk confocal microscopy; 3D visualization limited fluorescence fluctuations due to axial sample drift. In each case, 3D “stacks” of 22 optical sections were acquired in series up to 500 times in live or fixed cells (FIGS. 5A-5B). In live cells, even under optimal imaging conditions the BODIPY-Cer fluorescent signal decreased by 50% after fewer than 15 stacks. In striking contrast, the fluorescent signal of cells treated with 2 μM Cer-TCO followed by 2 μM SiR-Tz decreased by only 10% after more than 120 3D stacks had been acquired. Consistent with a lower density of Rab6-SNAP protein in the Golgi, the signal from Rab6-SNAP-SiR decayed at an intermediate rate, decreasing by 50% after about 50 3D stacks. […] After 500 3D stacks the fluorescent signal of Cer-SiR decreased 16% whereas that of Rab6-SNAP-SiR decreased by 84%. […]

[2] = tested on: HeLa cells that stably expressed GalNAcT2-GFP (Golgi); assay: Two-step Golgi labeling and colocalization with GalNAcT2-GFP by confocal microscopy; assay type: cell-based; conditions: 2 μM Cer-TCO then 2 μM SiR-Tz, or SiR-Tz only; Golgi area; confocal
Procedure: To evaluate whether the Golgi could be selectively imaged using Cer-SiR, HeLa cells that stably expressed a protein fusion composed of GFP and N-acetyl-galactosaminyltransferase 2 (GalNAcT2), a transmembrane protein that localizes to the Golgi with high specificity (Storrie, et al., 1998, J. Cell Biol. 143:1505-1521), were used. These cells were treated with 2 μM Cer-TCO (5 min), maintained at 19.5° C. for 60 min to localize the lipid to the Golgi, treated subsequently with 2 μM SiR-Tz (30 min), and visualized using confocal microscopy (FIG. 2A).
The GalNAcT2-GFP and Cer-SiR signals colocalized with a Pearson's coefficient of 0.50±0.02; the corresponding value for the signals from GalNAcT2-GFP and SiR-Tz was 0.08±0.01 (p<0.0001) (FIG. 10), supporting that Cer-TCO effectively localized to the Golgi and reacted efficiently with SiR-Tz.
Stably or transiently transfected HeLa cells were cultured on 35 mm glass bottom dishes (Mattek). To label with Cer-TCO/SiR-Tz, the cells were incubated in PBS containing 1% casein, 0.2% Pluronic F-127 and 2 or 5 μM TCO-Cer for 5 min at 37° C. After washing three times with DMEM ph(−), the cells were incubated for 1 h at 19.5° C. in DMEM ph(−). During this incubation the dish was sealed with parafilm to protect the cells from the used water bath. Subsequently, the cells were washed three times and PBS containing 1% casein and 2 or 1 μM SiR-Tz, respectively, was added to the dish. The dish was sealed with parafilm again and incubated for 30 min at 19.5° C. After washing three times with DMEM ph(−), the cells were observed under a confocal microscope. Fixed samples were prepared similarly with an additional treatment with 4% PFA for 10 min at room temperature after first temperature block. […]
The Pearson correlation between the SiR and the GFP signal within cells was determined using the correlation measurement tool in Volocity. […] For cells stably expressing GalNAcT2-GFP and treated with SiR-Tz and Cer-TCO 13 samples (cells) were analyzed and for cells only treated with SiR-Tz 8 samples were analyzed. […]

Q: For `CCCCCCCCCCCCC/C=C/[C@@H](O)[C@H](CO)NC(=O)CCCCCNC(=O)OC1CCCC2=C(c3ccc(CNC(=O)c4ccc(C(=O)[O-])c(C5=C6C=CC(=[N+](C)C)C=C6[Si](C)(C)c6cc(N(C)C)ccc65)c4)cc3)NN=CC2CC1` (stereo partly drawn) [Cer-SiR, 4-((4-(7-(((6-(((2S,3R,E)-1,3-dihydroxyoctadec-4-en-2-yl)amino)-6-oxohexyl)carbamoyl)oxy)-2,4a,5,6,7,8,9,10-octahydrocycloocta[d]pyridazin-1-yl)benzyl)carbamoyl)-2-(7-(dimethylamino)-3-(dimethyliminio)-5,5-dimethyl-3,5-dihydrodibenzo[b,e]silin-10-yl)benzoate], which “Decrease of fluorescent signal after 500 3D stacks” value [1] is on record?
A: 16%

Q: And the “Pearson's coefficient of colocalization with GalNAcT2-GFP signal” value [2]?
A: 0.50±0.02
